{"source": "PubChem BioAssay AID623909", "about": "(Vanderbilt High Throughput Screening Facility, 2012)", "note": "The source made the active and inactive calls. No rule for the calls is given here.", "data": [{"target": "G protein-activated inward rectifier potassium channel 2 (Homo sapiens) + G protein-activated inward rectifier potassium channel 1 (Homo sapiens) (UniProt P48051+P48549)", "sequence (P48051 whole entry, looked up)": "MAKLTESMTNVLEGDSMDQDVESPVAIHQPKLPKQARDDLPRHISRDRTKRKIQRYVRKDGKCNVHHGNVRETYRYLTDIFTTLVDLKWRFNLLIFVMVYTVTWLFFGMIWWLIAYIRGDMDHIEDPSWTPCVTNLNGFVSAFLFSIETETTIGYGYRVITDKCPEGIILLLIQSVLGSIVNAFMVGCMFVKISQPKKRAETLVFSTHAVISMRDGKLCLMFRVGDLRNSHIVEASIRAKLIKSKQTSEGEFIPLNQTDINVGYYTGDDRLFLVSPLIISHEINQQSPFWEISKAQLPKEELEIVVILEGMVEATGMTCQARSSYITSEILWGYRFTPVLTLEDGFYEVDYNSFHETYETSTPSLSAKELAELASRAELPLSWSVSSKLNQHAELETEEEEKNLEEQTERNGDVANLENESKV", "sequence (P48549 whole entry, looked up)": "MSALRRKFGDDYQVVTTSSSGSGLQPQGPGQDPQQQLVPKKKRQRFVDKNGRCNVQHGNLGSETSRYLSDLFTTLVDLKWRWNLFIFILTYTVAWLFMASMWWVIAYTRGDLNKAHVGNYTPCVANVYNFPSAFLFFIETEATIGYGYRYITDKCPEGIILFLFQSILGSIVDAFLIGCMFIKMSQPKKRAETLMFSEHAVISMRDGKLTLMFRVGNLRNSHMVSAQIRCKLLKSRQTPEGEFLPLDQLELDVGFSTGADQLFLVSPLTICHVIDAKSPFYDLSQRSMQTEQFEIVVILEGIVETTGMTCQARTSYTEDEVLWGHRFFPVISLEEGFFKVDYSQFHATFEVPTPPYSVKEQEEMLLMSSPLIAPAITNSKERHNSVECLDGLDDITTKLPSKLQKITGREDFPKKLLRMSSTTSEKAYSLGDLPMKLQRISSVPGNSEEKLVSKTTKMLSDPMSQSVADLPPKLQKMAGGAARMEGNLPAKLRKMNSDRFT", "assay": "activation of human GIRK potassium channels – cell-based, thallium flux, HEK-293, GIRK1/2, dose response (AID 623909)", "conditions": "HEK-293 hGIRK1/2, thallium flux FluoZin-2 fluorescence", "units": {"EC50": "µM"}, "values": [{"smiles": "Cc1ccc(NC(=O)CN2c3cccc4cccc(c34)S2(=O)=O)cc1S(=O)(=O)N1CCOCC1", "EC50": 2.23}, {"smiles": "C/C(CC(=O)NCC(C)C)=N\\NC(=O)COc1cc(C)c(Br)cc1Br", "EC50": 16.8}, {"smiles": "CC(Sc1nnnn1C)C(=O)Nc1ccc(Oc2ccccc2)cc1", "note": "(configuration not stated)", "EC50": 30}, {"smiles": "COc1ccc(NC(=O)Nc2cc(C)ccc2OC)cc1", "EC50": 2.05}, {"smiles": "COc1ccc(C)cc1NC(=O)Nc1ccccc1", "EC50": 5.96}, {"smiles": "COc1ccc(Nc2nnc(Cc3ccccc3)c(=O)[nH]2)c(OC)c1", "EC50": 30}, {"smiles": "O=C(Cc1ccccc1)N/N=C/c1cccn1-c1ccc([N+](=O)[O-])cc1", "EC50": 1.42}, {"smiles": "NC(=O)SCC(=O)Nc1ccc(Cl)cc1", "EC50": 4.2}, {"smiles": "Cc1ccc(Cl)cc1NC(=S)NCc1cccn1C", "EC50": 16.2}, {"smiles": "CCOc1ccccc1Nc1nnc(Cc2ccccc2Cl)c(=O)[nH]1", "EC50": 0.67}, {"smiles": "COc1c(Cl)cc(Cl)cc1CNCCNCC(C)O", "note": "(configuration not stated)", "EC50": 0.497}, {"smiles": "COc1cccc(NC(=O)CC2COc3ccccc3O2)c1", "note": "(configuration not stated)", "EC50": 30}, {"smiles": "S=C(Nc1cccc(Cl)c1)Nc1ccccc1Oc1ccccc1", "EC50": 8.09}, {"smiles": "O=C(Nc1ccccc1)Nc1nccs1", "EC50": 30}, {"smiles": "CSc1ccccc1NC(=O)Nc1ccccc1", "EC50": 12.8}, {"smiles": "COc1cccc(NC(=O)Nc2cccs2)c1", "EC50": 7.33}, {"smiles": "COc1ccccc1Nc1ccc(Nc2ccccc2OC)nn1", "EC50": 3.41}, {"smiles": "Cc1ccc(NC(=O)Cc2ccccc2Cl)cc1S(=O)(=O)N(C)C", "EC50": 2.62}, {"smiles": "CCCn1c(C)cc(/C=C(\\C#N)C(=O)OCC(=O)Nc2cccc(OC)c2)c1C", "EC50": 30}, {"smiles": "CCCN(CC1CC1)C(=S)Nc1ccc(Oc2ccccc2)cc1", "EC50": 3.54}, {"smiles": "Cc1ccc(CC(=O)N2CCN(c3cccc(C(F)(F)F)c3)CC2)cc1", "EC50": 5.18}, {"smiles": "CCOC(=O)C1=C(CC)Nc2ccccc2N=C1NC(=O)Nc1ccc(Cl)c(Cl)c1", "EC50": 3.62}, {"smiles": "CSc1cccc(NC(=O)COc2ccccc2)c1", "EC50": 30}, {"smiles": "Cc1ccc(-c2nnn(CC(=O)NC3CC4CCC3C4)n2)cc1", "note": "(configuration not stated)", "EC50": 0.317}, {"smiles": "CN(C)S(=O)(=O)N(CC(=O)Nc1ccc2ccccc2c1)c1ccccc1", "EC50": 7.2}, {"smiles": "COc1ccc(C)cc1NC(=O)NCCC1=CCCCC1", "EC50": 3.94}, {"smiles": "COc1ccc(C2CC(c3ccc(Cl)c(Cl)c3)Nc3nc(N)nn32)cc1", "note": "(configuration not stated)", "EC50": 2.41}, {"smiles": "C=C(C)C1CC=C(C)/C(=N/NC(=O)COc2cccc(C)c2)C1", "note": "(configuration not stated)", "EC50": 8.94}, {"smiles": "O=C(Nc1ccc(Cl)cc1)NC1CCCCC1Cc1ccco1", "note": "(configuration not stated)", "EC50": 4.14}, {"smiles": "CSc1cccc(NC(=O)CN(c2ccccc2)S(=O)(=O)N(C)C)c1", "EC50": 30}, {"smiles": "CCOC(=O)C(Cc1ccccc1)NC(=O)Cn1nnc(-c2ccccc2)n1", "note": "(configuration not stated)", "EC50": 30}, {"smiles": "COc1ccc(NC(=O)Nc2ccccc2C(=O)N2CCCC2)cc1", "EC50": 30}, {"smiles": "CCCCc1ccc(NC(=S)Nc2ccc(Cl)c(S(=O)(=O)N(C)C)c2)cc1", "EC50": 4}, {"smiles": "Cc1ccc(NC(=O)COC(=O)/C=C/c2ccco2)cc1S(=O)(=O)N(C)C", "EC50": 30}, {"smiles": "O=C(Nc1ccc(F)c(F)c1)NC1CCCCC1", "EC50": 8.55}, {"smiles": "O=C(NNC(=O)c1cccs1)Nc1cccc(Cl)c1", "EC50": 11.2}, {"smiles": "CCOc1ccc(NC(=O)NC23CC4CC(CC(C4)C2)C3)cc1", "EC50": 1.48}, {"smiles": "Cc1nn(CC(=O)Nc2ccc(Cl)c(S(=O)(=O)N(C)C)c2)c(C)c1[N+](=O)[O-]", "EC50": 30}, {"smiles": "CCOc1ccc(OCCSc2nc3ccccc3[nH]2)cc1", "EC50": 1.67}, {"smiles": "O=C(Nc1cccc(Cl)c1)Nc1nccs1", "EC50": 1.95}, {"smiles": "CCSc1nnc(NC(=O)NC(CC)(C(F)(F)F)C(F)(F)F)s1", "EC50": 30}, {"smiles": "COc1ccc(Br)cc1CNC(=O)Nc1cccs1", "EC50": 1.75}, {"smiles": "Cc1cccc(NC(=O)NC(C)CCc2ccccc2)c1", "note": "(configuration not stated)", "EC50": 30}, {"smiles": "Cc1cc(NC(=O)Nc2ccccc2)n(-c2ccccc2)n1", "EC50": 3.76}, {"smiles": "CCOCc1c(C(=O)OCC(=O)Nc2ccc(C)c(S(=O)(=O)N(C)C)c2)oc2ccccc12", "EC50": 30}, {"smiles": "CC1CCCN(Cc2cccc(Oc3ccccc3)c2)C1", "note": "(configuration not stated)", "EC50": 30}, {"smiles": "CC(C)=CCC(C)(C)CNC(=O)NC1CCCCC1", "EC50": 30}, {"smiles": "CC(/C=N/NC(=O)c1c(Br)cnn1C)=C\\c1ccccc1", "EC50": 3.54}, {"smiles": "COC(=O)[C@H](Cc1ccccc1)NC(=O)NCCC1=CCCCC1", "EC50": 30}, {"smiles": "CCOC(=O)c1ccc(NC(=O)Nc2ccc(OC)c(OC)c2)cc1", "EC50": 5.54}, {"smiles": "CCCSc1nnc(Nc2ccccc2C)s1", "EC50": 30}, {"smiles": "CC(=O)c1sc(NC(=O)c2cc(-c3ccccc3)nn2-c2ccccc2)nc1C", "EC50": 0.884}, {"smiles": "Cc1ccccc1OCC(=O)N/N=C/c1cccn1C", "EC50": 30}, {"smiles": "COc1cccc(NC(=O)Cn2cc(C#N)c3ccccc32)c1", "EC50": 1.65}, {"smiles": "CC1CC(C)CN(C(=S)Nc2ccc(SC(F)F)cc2)C1", "note": "(configuration not stated)", "EC50": 10.6}, {"smiles": "CCOC(=O)Cc1csc(NC(=O)Nc2ccccc2)n1", "EC50": 7.34}, {"smiles": "COc1ccc(C(=O)NC(=S)NC(C)C)cc1Br", "EC50": 2.25}, {"smiles": "CCCCc1ccc(NC(=S)Nc2cccnc2)cc1", "EC50": 8.96}, {"smiles": "O=C(Nc1ccc(Cl)cc1)Nc1nccs1", "EC50": 3.65}, {"smiles": "CN(C)S(=O)(=O)c1cccc(NC(=O)Cc2ccc(Cl)cc2)c1", "EC50": 9.88}, {"smiles": "O=C(/C=C/c1ccccc1)NC(NC(=S)Nc1cccc(Cl)c1)C(Cl)(Cl)Cl", "note": "(configuration not stated)", "EC50": 5.91}, {"smiles": "CCc1ccc(CNCCNCC(C)O)cc1", "note": "(configuration not stated)", "EC50": 2.36}, {"smiles": "Cc1ccc(NC(=O)COC(=O)CCC(=O)c2ccc(Cl)cc2)cc1S(=O)(=O)N(C)C", "EC50": 30}, {"smiles": "Fc1ccc(CSc2nc3ccccc3[nH]2)c2ccccc12", "EC50": 3.6}, {"smiles": "Cc1cc(C)n(-c2ccc(C(=O)OCC(=O)Nc3ccc(Cl)c(S(=O)(=O)N(C)C)c3)cc2)n1", "EC50": 8.94}]}, {"target": "G protein-activated inward rectifier potassium channel 2 (Homo sapiens) + G protein-activated inward rectifier potassium channel 1 (Homo sapiens) (UniProt P48051+P48549)", "assay": "activation of human GIRK potassium channels – cell-based, thallium flux, HEK-293, GIRK1/2, dose response (AID 623909)", "conditions": "HEK-293 hGIRK1/2, thallium flux FluoZin-2 fluorescence; at 90 µM (top of the series)", "values": [{"smiles": "CSc1ccccc1NC(=O)Nc1ccc(Cl)cc1", "activation, % of glutamate": "inactive"}, {"smiles": "CCOc1ccc(NC(=O)Nc2cccs2)cc1", "activation, % of glutamate": "inactive"}]}]}
